Several values for one entry are separate records, joined by “and”; a condition that tells them apart may be missing. Equal entries are not always repeated.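 48-hour exposure; five concentrations; linearly interpolated endpoints. At the GI50, growth is halved. At the TGI there is no net growth.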 Bounds are passed on as bounds.

Test systems include EKVX NSCLC; COLO 205 colon; SF-295 CNS; MALME-3M melanoma; NCI-H522 lung; A549 NSCLC; MDA-MB-435; MDA-MB-231 breast; NCI/ADR-RES ovarian; TK-10 renal.
Common to all, as to assay: NCI-60 cell line screen, 48 h

`Cc1nc2sc(C(=O)Nc3cccc(Cl)c3C)c(N)c2cc1C(C)O` (stereo unspecified): the GI50 in the assay with EKVX NSCLC is 533 nM; with COLO 205 colon, 257 nM; in the assay on SF-295 CNS, 119 nM; in the assay on MALME-3M melanoma, 1110 nM; in the assay with NCI-H522 lung, 112 nM; with A549 NSCLC, 246 nM. The GI50 with MDA-MB-435 was 28.8 nM; in the assay with MDA-MB-231 breast, 547 nM; in the assay on NCI/ADR-RES ovarian, 119 nM. The TGI was above 77 µM with EKVX NSCLC; 7.04 µM in the assay with COLO 205 colon; above 41.6 µM with SF-295 CNS; 37.5 µM with MALME-3M melanoma; 5.96 µM with NCI-H522 lung; above 61.8 µM in the assay with A549 NSCLC. Besides, the TGI was 0.101 µM with MDA-MB-435, 46.5 µM in the assay on MDA-MB-231 breast and above 61.3 µM in the assay with NCI/ADR-RES ovarian.
Turning to `CC(C)(O)CCC(O)C(C)(O)C1CCC2(O)C3=CC(=O)C4(O)CC(O)C(O)CC4(C)C3CCC12C` (stereo unspecified) (tested in a mixture with another compound), the TGI with EKVX NSCLC, in the assay on COLO 205 colon, in the assay on SF-295 CNS, with MALME-3M melanoma, in the assay with NCI-H522 lung and in the assay with TK-10 renal was above 100 µM each time. Also, the TGI in the assay with A549 NSCLC, in the assay on MDA-MB-435, with MDA-MB-231 breast and in the assay on NCI/ADR-RES ovarian was above 100 µM in each case.
Turning to `O=C(Nc1cccc([N+](=O)[O-])c1)c1cc2ccccc2cc1O`, the GI50 is 1870 nM in the assay on EKVX NSCLC; 1880 nM in the assay on COLO 205 colon; 1960 nM in the assay with SF-295 CNS; 376 nM in the assay on MALME-3M melanoma; 384 nM with NCI-H522 lung; 4.03 µM in the assay with TK-10 renal. The GI50 is 2840 nM in the assay on A549 NSCLC, 1500 nM in the assay on MDA-MB-435, 1470 nM in the assay with MDA-MB-231 breast and 1760 nM in the assay on NCI/ADR-RES ovarian. Moreover, the TGI in the assay on EKVX NSCLC worked out at 8.2 µM; with COLO 205 colon, 3.44 µM; in the assay on SF-295 CNS, 5.33 µM; with MALME-3M melanoma, 2.26 µM; in the assay with NCI-H522 lung it was 2.66 µM; in the assay with TK-10 renal, 9.46 µM. Moreover, the TGI with A549 NSCLC was above 100 µM; in the assay on MDA-MB-435, 5.41 µM; with MDA-MB-231 breast it was 3.64 µM; with NCI/ADR-RES ovarian it was 6.54 µM.
On to `COc1cc(N=Nc2cccc(S(N)(=O)=O)c2)c2ccccc2c1N`, for which the TGI worked out at 27.4 µM with EKVX NSCLC; 26.5 µM with COLO 205 colon; 26.6 µM in the assay with SF-295 CNS; 3.13 µM with MALME-3M melanoma; 30.6 µM with NCI-H522 lung; 30.1 µM in the assay on TK-10 renal. The TGI is 33 µM in the assay on A549 NSCLC, 3.71 µM in the assay on MDA-MB-435, 26.5 µM in the assay on MDA-MB-231 breast and above 68.5 µM with NCI/ADR-RES ovarian.
In the case of `C=C1C(=O)O[C@H]2[C@H]1CC/C(COC(=O)/C=C/c1c[nH]c3ccccc13)=C\CC[C@@]1(C)O[C@@H]21`, the GI50 in the assay on EKVX NSCLC is 238 nM; with COLO 205 colon, 225 nM; in the assay with SF-295 CNS, 1620 nM; with MALME-3M melanoma, 283 nM; with NCI-H522 lung it was 186 nM; with TK-10 renal, 0.279 µM. For the same compound, the GI50 was 1270 nM in the assay with A549 NSCLC, 222 nM in the assay on MDA-MB-435, 177 nM with MDA-MB-231 breast and 357 nM in the assay with NCI/ADR-RES ovarian. In addition, the TGI in the assay on EKVX NSCLC worked out at 0.769 µM; with COLO 205 colon, 0.541 µM; with SF-295 CNS it was 3.14 µM; in the assay on MALME-3M melanoma, 0.828 µM; in the assay with NCI-H522 lung, 0.371 µM; with TK-10 renal, 0.709 µM. Also, the TGI was 2.71 µM in the assay on A549 NSCLC, 0.582 µM in the assay with MDA-MB-435, 0.374 µM with MDA-MB-231 breast and 12.2 µM in the assay on NCI/ADR-RES ovarian.
Regarding `O=[N+]([O-])c1ccc(NC(=S)N/N=C(\c2ccccc2)c2ccccn2)cc1`, the GI50 in the assay on EKVX NSCLC was 1870 nM; with COLO 205 colon, 42.3 nM; with SF-295 CNS, 1870 nM; in the assay with NCI-H522 lung it was 1970 nM; in the assay with MDA-MB-231 breast, 28.6 nM. The TGI is 3.45 µM and 2.19 µM in the assay on EKVX NSCLC; 2.52 µM and 3.88 µM in the assay on COLO 205 colon; 3.5 µM and 2.98 µM with SF-295 CNS; 3.52 µM in the assay on MALME-3M melanoma; 4.2 µM and 1.48 µM with NCI-H522 lung; 2.51 µM with TK-10 renal. Also, the TGI with A549 NSCLC is 3.37 µM and 3.96 µM; in the assay on MDA-MB-435, 3.15 µM and 3.17 µM; in the assay on MDA-MB-231 breast, 2.06 µM and 1.86 µM; in the assay on NCI/ADR-RES ovarian, 5.12 µM.
With `C=C1C[C@@H]2[C@H](CC[C@]3(C)C(=O)CC[C@@H]23)[C@@]2(C)C=CC(=O)C=C12`, the GI50 in the assay on EKVX NSCLC is above 59200 nM; in the assay on COLO 205 colon, 20300 nM; in the assay on SF-295 CNS, 28500 nM; in the assay with MALME-3M melanoma it was above 43900 nM; in the assay with NCI-H522 lung, 8790 nM; with TK-10 renal it was 48.1 µM. Further, the GI50 was 11500 nM in the assay with A549 NSCLC, 26300 nM in the assay on MDA-MB-435, 35000 nM with MDA-MB-231 breast and 30600 nM in the assay with NCI/ADR-RES ovarian. The TGI in the assay with EKVX NSCLC was above 100 µM; in the assay on COLO 205 colon, 41 µM; in the assay with SF-295 CNS it was 74.5 µM; in the assay with MALME-3M melanoma, above 73.4 µM; in the assay on NCI-H522 lung, above 38.8 µM; in the assay with TK-10 renal it was above 100 µM. For the same compound, the TGI in the assay on A549 NSCLC was above 51.8 µM; in the assay with MDA-MB-435 it was above 81.5 µM; with MDA-MB-231 breast it was above 100 µM; with NCI/ADR-RES ovarian it was above 92 µM.
Take `O=C1C(=Cc2ccccc2[N+](=O)[O-])N=C(c2ccccc2)N1n1c(-c2ccccc2)nc2ccccc2c1=O`: the TGI was above 100 µM in the assay on EKVX NSCLC; above 100 µM in the assay on COLO 205 colon; above 100 µM in the assay on SF-295 CNS; 91.7 µM in the assay on MALME-3M melanoma; 31.8 µM with NCI-H522 lung; above 100 µM with TK-10 renal. The TGI is above 100 µM with A549 NSCLC, above 100 µM in the assay with MDA-MB-435, above 100 µM in the assay on MDA-MB-231 breast and 62.6 µM with NCI/ADR-RES ovarian.
Consider `C=Cc1cnc([N+](=O)[O-])n1C`, for which the TGI with EKVX NSCLC, in the assay on COLO 205 colon, in the assay on SF-295 CNS, in the assay with MALME-3M melanoma, in the assay on TK-10 renal and with A549 NSCLC was above 100 µM each time. Further, the TGI in the assay on MDA-MB-435, in the assay with MDA-MB-231 breast and with NCI/ADR-RES ovarian was above 100 µM in each case.
With `O=C(/C=C/c1ccccc1)CCc1c(O)c2ccccc2oc1=O`, the TGI in the assay with EKVX NSCLC, with COLO 205 colon, in the assay on SF-295 CNS, in the assay with MALME-3M melanoma, in the assay with NCI-H522 lung and in the assay on A549 NSCLC was above 100 µM each time. Further, the TGI in the assay on MDA-MB-435, in the assay with MDA-MB-231 breast and with NCI/ADR-RES ovarian was above 100 µM each time.

For the origin of these results see PubChem BioAssay (NCI).
